Data on 24 molecules can be found in patent publication US11390609B2, “Rho-associated protein kinase inhibitor, pharmaceutical composition comprising same, and preparation method and use thereof” (BEIJING TIDE PHARMACEUTICAL CO., LTD., priority 2017, dated 2022).

The structures appear in SMILES notation. A value given as a limit tells only on which side of the number the result lay.

Sequence of ROCK1 (Q13464 whole entry, species assumed): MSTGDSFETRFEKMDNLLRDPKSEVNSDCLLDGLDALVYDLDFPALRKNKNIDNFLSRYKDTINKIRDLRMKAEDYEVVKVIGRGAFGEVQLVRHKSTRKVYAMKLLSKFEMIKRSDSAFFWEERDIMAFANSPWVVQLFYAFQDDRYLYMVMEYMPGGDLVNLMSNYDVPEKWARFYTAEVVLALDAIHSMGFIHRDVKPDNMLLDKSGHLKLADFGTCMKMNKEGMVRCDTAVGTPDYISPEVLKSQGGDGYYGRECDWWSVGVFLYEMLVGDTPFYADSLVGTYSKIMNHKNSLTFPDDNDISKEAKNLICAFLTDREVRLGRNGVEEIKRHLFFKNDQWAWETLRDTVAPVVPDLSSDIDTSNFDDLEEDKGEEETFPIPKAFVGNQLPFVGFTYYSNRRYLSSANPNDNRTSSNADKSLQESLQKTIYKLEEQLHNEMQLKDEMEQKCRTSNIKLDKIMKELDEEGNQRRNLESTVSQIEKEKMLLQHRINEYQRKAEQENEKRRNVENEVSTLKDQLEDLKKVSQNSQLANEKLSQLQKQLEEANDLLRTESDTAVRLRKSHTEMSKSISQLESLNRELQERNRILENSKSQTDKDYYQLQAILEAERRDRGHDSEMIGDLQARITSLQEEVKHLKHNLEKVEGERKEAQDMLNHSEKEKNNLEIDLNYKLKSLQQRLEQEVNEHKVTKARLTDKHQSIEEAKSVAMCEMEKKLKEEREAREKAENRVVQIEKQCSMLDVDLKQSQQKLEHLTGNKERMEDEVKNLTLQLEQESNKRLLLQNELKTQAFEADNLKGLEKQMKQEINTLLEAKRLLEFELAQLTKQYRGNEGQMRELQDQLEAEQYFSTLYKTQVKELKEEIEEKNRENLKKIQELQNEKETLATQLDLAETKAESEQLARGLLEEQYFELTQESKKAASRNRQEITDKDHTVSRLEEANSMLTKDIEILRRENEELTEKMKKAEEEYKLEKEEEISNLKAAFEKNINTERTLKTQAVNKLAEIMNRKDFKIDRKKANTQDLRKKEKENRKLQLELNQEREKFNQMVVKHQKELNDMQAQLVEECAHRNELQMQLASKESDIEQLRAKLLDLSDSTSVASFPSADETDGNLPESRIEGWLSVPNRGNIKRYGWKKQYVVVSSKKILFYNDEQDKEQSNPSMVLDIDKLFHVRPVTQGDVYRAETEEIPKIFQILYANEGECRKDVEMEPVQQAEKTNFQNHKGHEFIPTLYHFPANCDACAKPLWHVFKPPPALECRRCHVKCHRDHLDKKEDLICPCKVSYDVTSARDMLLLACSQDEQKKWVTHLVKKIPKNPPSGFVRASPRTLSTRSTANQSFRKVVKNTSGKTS

This assay deals with ROCK1 (Homo sapiens (Human), UniProt Q13464). The experiment in a line: ROCK1 kinase IC50 assay (biological test method similar to the ROCK2 assay). The format is biochemical. As for the experimental part:
The kinase IC50 was determined by a commercialized CISBIO kinase detection kit, HTRF KinEASE-STK S2 kit (62ST2PEC). ROCK2 (01-119) employed in the reaction was purchased from Carna Biosciences.
Before the assay, the following working solutions as needed were formulated with corresponding reagents according to the instruction of the kinase detection kit: 1×kinase buffer, 5×STK-52 substrate working solution (1.5 μM) and 5×ATP working solution (1.5 μM), 5×ROCK2 kinase working solution, 4×Streptavidin-XL665 working solution, and 4×STK-Ab-Cryptate 2 detection solution. Then the assay was performed according to the following procedure.
A solution of a compound at a concentration of 10000 nM was prepared with the 1×kinase buffer containing 2.5% DMSO. Gradient dilution of the solution of the compound was performed with the kinase buffer containing DMSO, so as to obtain solutions of a test compound at 9 different concentrations. In addition to wells of test compounds, a positive well (containing all the reagents except the compound) and a negative well (containing all the reagents except the test compound and kinase) were set. Except for the control wells (positive and negative wells), a solution of a test compound (4 μL) was added to each of the reaction wells, and a solution of 2.5% DMSO was added to the control wells. Then the substrate ([…], 2 μL. 5×STK-S2 substrate working solution) was added to each of the reaction wells. The 5×ROCK2 kinase working solution (2 μL, containing 1.4 ng ROCK2 kinase) was added to each of the reaction wells except for the negative well, the volume of which was made up with the 1×kinase buffer (2 μL). The 5×ATP working solution (2 μL) was added to each of the reaction wells, and the mixtures were incubated at room temperature for 2 hours. After the kinase reaction was complete, the 4×Streptavidin-XL665 working solution was added to each of the reaction wells, the solutions were mixed, followed by immediate addition of the 4×STK-Ab-Cryptate 2 detection solution (5 μL), and the mixtures were incubated at room temperature for 1 hour. The fluorescence signal was read on ENVISION (Perkinelmer) (excitation wavelength: 320 nm, and emission wavelength: 665 nm and 615 nm). The inhibitory rate in each well was calculated based on the fluorescence intensity value: ER (Emission Ratio)=(fluorescence intensity at 665 nm/fluorescence intensity at 615 nm); inhibitory rate=(ERpositive−ERtest compound)/(ERpositive−ERnegative)*100%. Curves were plotted and fitted to obtain the median inhibitory concentration (IC50) of each teat compound with the PRISM 5.0 software.
According to a biological test method similar to the above, the IC50 values of the compounds on ROCK1 were tested.
As for `O=C(Nc1ccnnc1)c1cc2ccc(-c3nc(Nc4ccc5[nH]ncc5c4)cc4nccn34)cc2[nH]1` [TDI01164, 6-(7-((1H-indazol-5-yl)amino)-imidazo[1,2-c]pyrimidin-5-yl)-N-(pyridazin-4-yl)-1H-indole-2-carboxamide], the IC50 (in general, the midpoint of a concentration-inhibition curve) is more than 10 µM.

For `CC(C)NC(=O)c1cc2ccc(-c3nc(Nc4ccc5[nH]ncc5c4)c4ccn(CCN(C)C)c4n3)cc2s1` [TDI01122, 6-(4-((1H-indazol-5-yl)amino)-7-(2-(dimethylami-no)ethyl)-7H-pyrrolo[2,3-d]pyrimidin-2-yl)-N-isopropylben-zo[b]thiophene-2-carboxamide], it took 3.27 µM to reach half-maximal inhibition (IC50).

Molecule `CCN(CC)C(=O)c1cc2ccc(-c3nccc(Nc4ccc(-c5cn[nH]c5)cc4)n3)cc2[nH]1` [TDI01332, 6-(4-((4-(1H-pyrazol-4-yl)phenyl)-amino)-pyrimidin-2-yl)-N,N-diethyl-1H-indole-2-carboxamide] came in with an IC50 of 6.27 µM.

For the molecule `CC(C)NC(=O)c1cc2ccc(-c3nc(Nc4ccc5[nH]ncc5c4)c4scnc4n3)cc2[nH]1` [TDI01149, 6-(7-((1H-indazol-5-yl)ami-no)thiazolo[4,5-d]pyrimidin-5-yl)-N-isopropyl-1H-indole-2-carboxamide], the midpoint of inhibition, the IC50, lay at 1.32 µM.

The molecule `CC(C)NC(=O)c1cc2ccc(-c3nc(Nc4ccc5[nH]ncc5c4)c4cc[nH]c4n3)cc2[nH]1` [TDI01143, 6-(4-((1H-indazol-5-yl)amino)-7H-pyrrolo[2,3-d]pyrimidin-2-yl)-N-isopropyl-1H-indole-2-carboxamide] registered a half-maximal inhibitory concentration (IC50) of 1.48 µM.

In turn, `O=C(Nc1ccnnc1)c1cc2ccc(-c3nc(Nc4ccc5[nH]ncc5c4)c4sccc4n3)cc2[nH]1` [TDI01175, 6-(4-((1H-indazol-5-yl)amino)-thieno[3,2-d]pyrimidin-2-yl)-N-(pyridazin-4-yl)-1H-indole-2-carboxamide] returned a half-maximal inhibitory concentration (IC50) of 5.19 µM.

Turning to `CN(C(=O)c1cc2ccc(-c3nccc(Nc4ccc5[nH]ncc5c4)n3)cc2[nH]1)c1ccnnc1` [TDI01347, 6-(4-((1H-indazol-5-yl)amino)-pyrimidin-2-yl)-N-methyl-N-(pyridazin-4-yl)-1H-indole-2-carboxamide], half-maximal inhibition (IC50) required 5.58 µM.

On to `O=C(NC1CCOC1)c1cc2ccc(-c3nccc(Nc4ccc5[nH]ncc5c4)n3)cc2s1` (stereo not drawn) [TDI01113, 6-(4-((1H-indazol-5-yl)amino)pyrimidin-2-yl)-N-(tetrahydrofuran-3-yl)benzo[b]thiophene-2-carboxamide], for which the midpoint of inhibition, the IC50, lay at 0.554 µM.

As for `Cn1c(C(=O)N2CC(F)(F)C2)cc2ccc(-c3ncc(F)c(Nc4ccc(-c5cn[nH]c5)cc4)n3)cc21` [TDI01932], the concentration for half-maximal inhibition (IC50) is more than 10 µM.

In turn, `O=C(NC1CCC1)c1cc2ccc(-c3nc(Nc4ccc(-c5cn[nH]c5)cc4)c4sccc4n3)cc2[nH]1` [TDI01424, 6-(4-((4-(1H-pyrazol-4-yl)phenyl)-amino)-thieno-[3,2-d]-pyrimidin-2-yl)-N-cyclobutyl-1H-indole-2-carboxamide] yielded a 50% inhibitory concentration (IC50) of 4.98 µM.

`O=C(c1cc2ccc(-c3nccc(Nc4ccc(-c5cn[nH]c5)cc4)n3)cc2[nH]1)N1CCOCC1` [TDI01331, (6-(4-((4-(1H-pyrazol-4-yl)phenyl)-amino)-pyrimidin-2-yl)-1H-indol-2-yl)-(morpholino)-methanone] registered a concentration for half-maximal inhibition (IC50) of more than 10 µM.

For `O=C(NC1CCN(c2ccncc2Cl)CC1)c1cc2ccc(-c3nccc(Nc4ccc(-c5cn[nH]c5)cc4)n3)cc2[nH]1` [TDI01847B, 6-(4-((4-(1H-pyrazol-4-yl)phenyl)-amino)-pyrimidin-2-yl)-N-(1-(3-chloropyridin-4-yl)piperidin-4-yl)-1H-indole-2-carboxamide], the IC50 worked out at 3.38 µM.

In turn, `O=C(Nc1cnoc1)c1cc2ccc(-c3nccc(Nc4ccc5[nH]ncc5c4)n3)cc2[nH]1` [TDI01156, 6-(4-((1H-indazol-5-yl)amino)-pyrimidin-2-yl)-N-(isoxazol-4-yl)-1H-indole-2-carboxamide] showed an IC50 of 1.99 µM.

Consider `O=C(Nc1ccncc1I)c1cc2ccc(-c3nccc(Nc4ccc(-c5cn[nH]c5)cc4)n3)cc2[nH]1` [TDI01829C, 6-(4-((4-(1H-pyrazol-4-yl)phenyl)-amino)-pyrimidin-2-yl)-N-(3-iodopyridin-4-yl)-1H-indole-2-carboxamide], for which the IC50 was more than 10 µM.

`O=C(c1cc2ccc(-c3nccc(Nc4ccc(-c5cn[nH]c5)cc4)n3)cc2[nH]1)N1CCC2(CCNCC2)CC1` [TDI01425, (6-(4-((4-(1H-pyrazol-4-yl)phenyl)-amino)-pyrimidin-2-yl)-1H-indol-2-yl)(3,9-diazaspiro[5.5]undecan-3-yl)methanone] yielded a half-maximal inhibitory concentration (IC50) of 2.94 µM.

With `O=C(Nc1cn[nH]c1)c1cc2ccc(-c3nccc(Nc4ccc5[nH]ncc5c4)n3)cc2[nH]1` [TDI01199, 6-(4-((1H-indazol-5-yl)amino)-pyrimidin-2-yl)-N-(1H-pyrazol-4-yl)-1H-indole-2-carboxamide], the midpoint of inhibition, the IC50, lay at 1.1 µM.

Consider `O=C(NC1CCOCC1)c1cc2ccc(-c3nccc(Nc4ccc(-c5cn[nH]c5)cc4)n3)cc2[nH]1` [TDI01338, 6-(4-((4-(1H-pvrazol-4-yl)phenyl)-amino)-pyrimidin-2-yl)-N-(tetrahydro-2H-pyran-4-yl)-1H-indole-2-carboxamide], for which the IC50 came out at 1.8 µM.

With `O=C(Nc1ccnnc1)c1cc2ccc(-c3ncc(F)c(Nc4ccc5[nH]ncc5c4)n3)cc2[nH]1` [TDI01213, 6-(4-((1H-indazol-5-yl)amino)-5-fluoropyrimidin-2-yl)-N-(pyridazin-4-yl)-1H-indole-2-carboxamide], the IC50 is more than 10 µM.

`CN(C(=O)c1cc2ccc(-c3nccc(Nc4ccc(-c5cn[nH]c5)cc4)n3)cc2[nH]1)C1CCC1` [TDI01420, 6-(4-((4-(1H-pyrazol-4-yl)phenyl)amino)pyrimidin-2-yl)-N-cyclobutyl-N-methyl-1H-indole-2-carboxamide]: the IC50 was 9.29 µM.

Molecule `O=C(NC1CC1)c1cc2ccc(-c3nccc(Nc4ccc5[nH]ncc5c4)n3)cc2s1` [TDI01111, 6-(4-((1H-indazol-5-yl)amino)pyrimidin-2-yl)-N-cyclopropylben-zo[b]thiophene-2-carboxamide] displayed an IC50 of 1.41 µM.

Take `O=C(c1cc2ccc(-c3nccc(Nc4ccc(-c5cn[nH]c5)cc4)n3)cc2[nH]1)N1CCC1` [TDI01330, (6-(4-((4-(1H-pyrazol-4-yl)phenyl)-amino)-pyrimidin-2-yl)-1H-indol-2-yl)(azetidin-1-yl)methanone]: the IC50 was found to be 7.93 µM.

As for `O=C(Nc1ccnnc1)c1cc2ccc(-c3nccc(Nc4ccc5[nH]ncc5c4)n3)cc2[nH]1` [TDI01152, 6-(4-((1H-indazol-5-yl)amino)-pyrimidin-2-yl)-N-(pyridazin-4-yl)-1H-indole-2-carboxaniide], the IC50 is more than 10 µM.

`CC(C)(C)OC(=O)n1cc(NC(=O)c2cc3ccc(-c4nccc(Nc5ccc6[nH]ncc6c5)n4)cc3[nH]2)cn1` [TDI01200, tert-butyl 4-(6-(4-((1H-indazol-5-yl)amino)-pyrimidin-2-yl)-1H-indole-2-carboxamido)-1H-pyrazole-1-carboxylate] yielded an IC50 of 0.559 µM.

With `CN(C)C(=O)N1Cc2ccc(-c3nccc(Nc4ccc(-c5cn[nH]c5)cc4)n3)cc2C1` [TDI01366, 5-(4-((4-(1H-pyrazol-4-yl)phenyl)amino)pyrimidin-2-yl)-N,N-dimethylisoindoline-2-carboxamide], the IC50 is more than 10 µM.
